From the NIST ThermoML archive (doi:10.1016/j.jct.2004.08.003)
± gives the expanded uncertainty stated by the source.

Tests used:
[1] = xn = mol fraction of the nth substance listed; conditions: 101.3 kPa, Liquid
[2] = relative permittivity at various frequencies (dimensionless); xn = mol fraction of the nth substance listed; conditions: 101.3 kPa, Liquid, Frequency=1 MHz, HP4284A LCR Meter with HP16452A measuring cell

COCCOCCOCCOC [2,5,8,11-tetraoxadodecane] + CCCCCCCCCCCC
Conditions | mass density, [1] [kg/m3] | relative permittivity, [2]
288.15 K, x1 = 0.0983 | 769.24 ± 1.1 | –
288.15 K, x1 = 0.0993 | – | 2.3 ± 0.05
288.15 K, x1 = 0.1981 | – | 2.61 ± 0.05
288.15 K, x1 = 0.2007 | 788.2 ± 1 | –
288.15 K, x1 = 0.2498 | – | 2.79 ± 0.06
288.15 K, x1 = 0.2526 | 798.35 ± 0.97 | –
288.15 K, x1 = 0.2974 | 807.41 ± 0.95 | –
288.15 K, x1 = 0.3051 | – | 3.01 ± 0.06
288.15 K, x1 = 0.396 | – | 3.4 ± 0.07
288.15 K, x1 = 0.398 | 828.67 ± 0.89 | –
288.15 K, x1 = 0.5011 | – | 3.92 ± 0.08
288.15 K, x1 = 0.5097 | 853.81 ± 0.84 | –
288.15 K, x1 = 0.5986 | 875.06 ± 0.78 | –
288.15 K, x1 = 0.5991 | – | 4.51 ± 0.09
288.15 K, x1 = 0.6981 | 900.28 ± 0.73 | –
288.15 K, x1 = 0.7114 | – | 5.28 ± 0.11
288.15 K, x1 = 0.7994 | – | 5.98 ± 0.12
288.15 K, x1 = 0.8012 | 928.25 ± 0.67 | –
288.15 K, x1 = 0.8996 | – | 6.87 ± 0.14
288.15 K, x1 = 0.9009 | 957.48 ± 0.62 | –
288.15 K, x1 = 0.9504 | – | 7.37 ± 0.15
288.15 K, x1 = 0.951 | 973.13 ± 0.59 | –
293.15 K, x1 = 0.0989 | 765.55 ± 1.1 | –
293.15 K, x1 = 0.0992 | – | 2.3 ± 0.05
293.15 K, x1 = 0.1969 | 783.56 ± 1 | –
293.15 K, x1 = 0.2005 | – | 2.6 ± 0.05
293.15 K, x1 = 0.2488 | 793.6 ± 0.98 | –
293.15 K, x1 = 0.252 | – | 2.78 ± 0.06
293.15 K, x1 = 0.2988 | – | 2.95 ± 0.06
293.15 K, x1 = 0.3069 | 805.3 ± 0.95 | –
293.15 K, x1 = 0.3978 | – | 3.37 ± 0.07
293.15 K, x1 = 0.4006 | 825.05 ± 0.9 | –
293.15 K, x1 = 0.5003 | – | 3.87 ± 0.08
293.15 K, x1 = 0.5006 | 847.38 ± 0.85 | –
293.15 K, x1 = 0.5981 | 870.51 ± 0.79 | –
293.15 K, x1 = 0.6016 | – | 4.45 ± 0.09
293.15 K, x1 = 0.698 | – | 5.08 ± 0.1
293.15 K, x1 = 0.6989 | 895.89 ± 0.74 | –
293.15 K, x1 = 0.7963 | 922.13 ± 0.68 | –
293.15 K, x1 = 0.7995 | – | 5.85 ± 0.12
293.15 K, x1 = 0.8997 | – | 6.73 ± 0.13
293.15 K, x1 = 0.9032 | 953.28 ± 0.62 | –
293.15 K, x1 = 0.9492 | – | 7.2 ± 0.14
293.15 K, x1 = 0.95 | 967.84 ± 0.6 | –
298.15 K, x1 = 0.088 | – | 2.25 ± 0.05
298.15 K, x1 = 0.0984 | 761.73 ± 1.1 | –
298.15 K, x1 = 0.1995 | 780.21 ± 1 | –
298.15 K, x1 = 0.2006 | – | 2.58 ± 0.05
298.15 K, x1 = 0.2494 | – | 2.74 ± 0.06
298.15 K, x1 = 0.2511 | 790.16 ± 0.99 | –
298.15 K, x1 = 0.3005 | 800.04 ± 0.97 | –
298.15 K, x1 = 0.3046 | – | 2.95 ± 0.06
298.15 K, x1 = 0.3988 | 820.63 ± 0.91 | –
298.15 K, x1 = 0.4127 | – | 3.4 ± 0.07
298.15 K, x1 = 0.496 | – | 3.8 ± 0.08
298.15 K, x1 = 0.4974 | 842.53 ± 0.86 | –
298.15 K, x1 = 0.5972 | – | 4.35 ± 0.09
298.15 K, x1 = 0.598 | 866.25 ± 0.8 | –
298.15 K, x1 = 0.6987 | – | 4.98 ± 0.1
298.15 K, x1 = 0.6997 | 891.79 ± 0.74 | –
298.15 K, x1 = 0.7954 | 917.48 ± 0.69 | –
298.15 K, x1 = 0.8028 | – | 5.76 ± 0.12
298.15 K, x1 = 0.9014 | 948.24 ± 0.63 | –
298.15 K, x1 = 0.9022 | – | 6.61 ± 0.13
298.15 K, x1 = 0.9504 | – | 7.07 ± 0.14
298.15 K, x1 = 0.9513 | 963.73 ± 0.61 | –
303.15 K, x1 = 0.0987 | 758.05 ± 1.1 | –
303.15 K, x1 = 0.099 | – | 2.26 ± 0.05
303.15 K, x1 = 0.1997 | – | 2.56 ± 0.05
303.15 K, x1 = 0.2033 | 777 ± 1 | –
303.15 K, x1 = 0.2498 | 785.94 ± 1 | –
303.15 K, x1 = 0.2517 | – | 2.73 ± 0.05
303.15 K, x1 = 0.2994 | 795.76 ± 0.98 | 2.9 ± 0.06
303.15 K, x1 = 0.3949 | 815.57 ± 0.93 | –
303.15 K, x1 = 0.3976 | – | 3.3 ± 0.07
303.15 K, x1 = 0.4991 | – | 3.76 ± 0.08
303.15 K, x1 = 0.5002 | 838.84 ± 0.87 | –
303.15 K, x1 = 0.5969 | – | 4.29 ± 0.09
303.15 K, x1 = 0.5996 | 862.24 ± 0.81 | –
303.15 K, x1 = 0.6979 | 886.84 ± 0.76 | –
303.15 K, x1 = 0.699 | – | 4.94 ± 0.1
303.15 K, x1 = 0.7996 | 914.11 ± 0.7 | –
303.15 K, x1 = 0.8015 | – | 5.69 ± 0.11
303.15 K, x1 = 0.9015 | 943.66 ± 0.64 | –
303.15 K, x1 = 0.9058 | – | 6.55 ± 0.13
303.15 K, x1 = 0.9494 | – | 6.96 ± 0.14
303.15 K, x1 = 0.9509 | 958.94 ± 0.61 | –
308.15 K, x1 = 0.0988 | – | 2.25 ± 0.05
308.15 K, x1 = 0.1 | 754.59 ± 1.1 | –
308.15 K, x1 = 0.1965 | – | 2.53 ± 0.05
308.15 K, x1 = 0.1987 | 772.42 ± 1 | –
308.15 K, x1 = 0.2471 | – | 2.7 ± 0.05
308.15 K, x1 = 0.2494 | 782.08 ± 1 | –
308.15 K, x1 = 0.2992 | 791.92 ± 0.99 | –
308.15 K, x1 = 0.307 | – | 2.91 ± 0.06
308.15 K, x1 = 0.3968 | 812.1 ± 0.94 | –
308.15 K, x1 = 0.4071 | – | 3.31 ± 0.07
308.15 K, x1 = 0.4983 | – | 3.73 ± 0.07
308.15 K, x1 = 0.5058 | 836.19 ± 0.88 | –
308.15 K, x1 = 0.5976 | 857.76 ± 0.82 | –
308.15 K, x1 = 0.598 | – | 4.25 ± 0.09
308.15 K, x1 = 0.6938 | – | 4.83 ± 0.1
308.15 K, x1 = 0.6974 | 882.71 ± 0.76 | –
308.15 K, x1 = 0.7997 | – | 5.57 ± 0.11
308.15 K, x1 = 0.7998 | 910.17 ± 0.7 | –
308.15 K, x1 = 0.9018 | – | 6.41 ± 0.13
308.15 K, x1 = 0.9025 | 939.96 ± 0.65 | –
308.15 K, x1 = 0.9501 | – | 6.86 ± 0.14
308.15 K, x1 = 0.9512 | 955.04 ± 0.62 | –
318.15 K, x1 = 0.0976 | 746.77 ± 1.1 | –
318.15 K, x1 = 0.0989 | – | 2.23 ± 0.04
318.15 K, x1 = 0.1979 | 764.58 ± 1.1 | –
318.15 K, x1 = 0.2 | – | 2.51 ± 0.05
318.15 K, x1 = 0.248 | 773.96 ± 1 | –
318.15 K, x1 = 0.249 | – | 2.66 ± 0.05
318.15 K, x1 = 0.297 | – | 2.82 ± 0.06
318.15 K, x1 = 0.3015 | 784.34 ± 1 | –
318.15 K, x1 = 0.3929 | – | 3.18 ± 0.06
318.15 K, x1 = 0.4004 | 804.52 ± 0.96 | –
318.15 K, x1 = 0.5013 | 826.47 ± 0.9 | –
318.15 K, x1 = 0.5026 | – | 3.66 ± 0.07
318.15 K, x1 = 0.6015 | – | 4.16 ± 0.08
318.15 K, x1 = 0.6035 | 850.21 ± 0.84 | –
318.15 K, x1 = 0.6959 | 873.06 ± 0.79 | –
318.15 K, x1 = 0.7035 | – | 4.76 ± 0.1
318.15 K, x1 = 0.7956 | 899.51 ± 0.73 | –
318.15 K, x1 = 0.7989 | – | 5.4 ± 0.11
318.15 K, x1 = 0.9004 | – | 6.19 ± 0.12
318.15 K, x1 = 0.9025 | 930.16 ± 0.66 | –
318.15 K, x1 = 0.949 | 944.39 ± 0.64 | –
318.15 K, x1 = 0.9505 | – | 6.62 ± 0.13
328.15 K, x1 = 0.0988 | – | 2.23 ± 0.04
328.15 K, x1 = 0.0996 | 739.48 ± 1.1 | –
328.15 K, x1 = 0.1986 | – | 2.49 ± 0.05
328.15 K, x1 = 0.208 | 758.56 ± 1.1 | –
328.15 K, x1 = 0.2483 | – | 2.62 ± 0.05
328.15 K, x1 = 0.2561 | 767.51 ± 1.1 | –
328.15 K, x1 = 0.3036 | 776.66 ± 1 | –
328.15 K, x1 = 0.3062 | – | 2.81 ± 0.06
328.15 K, x1 = 0.3961 | – | 3.14 ± 0.06
328.15 K, x1 = 0.3988 | 795.88 ± 0.98 | –
328.15 K, x1 = 0.4898 | 815.4 ± 0.93 | –
328.15 K, x1 = 0.4986 | – | 3.56 ± 0.07
328.15 K, x1 = 0.596 | – | 4.03 ± 0.08
328.15 K, x1 = 0.5972 | 839.96 ± 0.87 | –
328.15 K, x1 = 0.6906 | 862.83 ± 0.81 | –
328.15 K, x1 = 0.6969 | – | 4.61 ± 0.09
328.15 K, x1 = 0.7914 | – | 5.22 ± 0.1
328.15 K, x1 = 0.8023 | 892.19 ± 0.74 | –
328.15 K, x1 = 0.8935 | – | 5.99 ± 0.12
328.15 K, x1 = 0.8988 | 919.73 ± 0.68 | –
328.15 K, x1 = 0.9494 | – | 6.44 ± 0.13
328.15 K, x1 = 0.9518 | 935.78 ± 0.65 | –
